{
  "source": "patent EP4635500A1",
  "about": "“THERAPEUTIC AGENT FOR BACTERIAL INFECTION” (Sumitomo Pharma Co., Ltd., priority 2022, dated 2024)",
  "tested_on": "Enterobacterales",
  "assay": "MIC, broth microdilution, CDC/FDA Antibiotic Resistance Isolate Bank (Example 7, Tables 8, 11, 12)",
  "assay_type": "cell-based",
  "conditions": "for MIC: read-out: MIC",
  "note": "Read-outs that look alike come from different tables or passages of the source.",
  "data": [
    {"molecule": "C[C@H]1COc2c(N3CCN(C)CC3)c(F)cc3c(=O)c(C(=O)O)cn1c23", "note": "[Levofloxacin, levofloxacin]", "values": [
      {"measurement": "MIC", "setting": "Klebsiella pneumoniae, KUB No. 5546, AR Bank# 49", "value": "> 64", "unit": "µg/mL"},
      {"measurement": "MIC", "setting": "Klebsiella pneumoniae, KUB No. 5603, AR Bank # 106", "value": "> 64", "unit": "µg/mL"},
      {"measurement": "MIC", "setting": "Klebsiella pneumoniae, KUB No. 5604, AR Bank # 107", "value": 64, "unit": "µg/mL"},
      {"measurement": "MIC", "setting": "Klebsiella pneumoniae, KUB No. 5606, AR Bank # 109", "value": "> 64", "unit": "µg/mL"},
      {"measurement": "MIC", "setting": "Klebsiella pneumoniae, KUB No. 5609, AR Bank # 112", "value": 16, "unit": "µg/mL"},
      {"measurement": "MIC", "setting": "Klebsiella pneumoniae, KUB No. 5610, AR Bank # 113", "value": 16, "unit": "µg/mL"},
      {"measurement": "MIC", "setting": "Klebsiella pneumoniae, KUB No. 5612, AR Bank # 115", "value": 32, "unit": "µg/mL"},
      {"measurement": "MIC", "setting": "Klebsiella pneumoniae, KUB No. 5614, AR Bank # 117", "value": 4, "unit": "µg/mL"},
      {"measurement": "MIC", "setting": "Klebsiella pneumoniae, KUB No. 5617, AR Bank # 120", "value": 64, "unit": "µg/mL"},
      {"measurement": "MIC", "setting": "Klebsiella pneumoniae, KUB No. 5622, AR Bank # 125", "value": 64, "unit": "µg/mL"},
      {"measurement": "MIC", "setting": "Klebsiella pneumoniae, KUB No. 5623, AR Bank # 126", "value": 0.12, "unit": "µg/mL"},
      {"measurement": "MIC", "setting": "Klebsiella pneumoniae, KUB No. 5626, AR Bank # 129", "value": 64, "unit": "µg/mL"},
      {"measurement": "MIC", "setting": "Klebsiella pneumoniae, KUB No. 5632, AR Bank # 135", "value": 64, "unit": "µg/mL"},
      {"measurement": "MIC", "setting": "Klebsiella pneumoniae, KUB No. 5635, AR Bank # 138", "value": "> 64", "unit": "µg/mL"},
      {"measurement": "MIC", "setting": "Klebsiella pneumoniae, KUB No. 5636, AR Bank # 139", "value": 8, "unit": "µg/mL"},
      {"measurement": "MIC", "setting": "Klebsiella pneumoniae, KUB No. 5637, AR Bank # 140", "value": 16, "unit": "µg/mL"},
      {"measurement": "MIC", "setting": "Klebsiella pneumoniae, KUB No. 5638, AR Bank # 141", "value": 8, "unit": "µg/mL"},
      {"measurement": "MIC", "setting": "Klebsiella pneumoniae, KUB No. 5639, AR Bank # 142", "value": 8, "unit": "µg/mL"},
      {"measurement": "MIC", "setting": "Klebsiella pneumoniae, KUB No. 5640, AR Bank # 143", "value": 64, "unit": "µg/mL"},
      {"measurement": "MIC", "setting": "Klebsiella pneumoniae, KUB No. 5642, AR Bank # 145", "value": 32, "unit": "µg/mL"},
      {"measurement": "MIC", "setting": "Klebsiella pneumoniae, KUB No. 5643, AR Bank # 146", "value": 64, "unit": "µg/mL"},
      {"measurement": "MIC", "setting": "Klebsiella pneumoniae, KUB No. 5645, AR Bank # 148", "value": 64, "unit": "µg/mL"},
      {"measurement": "MIC", "setting": "Klebsiella pneumoniae, KUB No. 5649, AR Bank # 152", "value": 32, "unit": "µg/mL"},
      {"measurement": "MIC", "setting": "Klebsiella pneumoniae, KUB No. 5650, AR Bank # 153", "value": "> 64", "unit": "µg/mL"},
      {"measurement": "MIC", "setting": "Klebsiella pneumoniae, KUB No. 5655, AR Bank # 158", "value": 16, "unit": "µg/mL"},
      {"measurement": "MIC", "setting": "Klebsiella pneumoniae, KUB No. 5657, AR Bank # 160", "value": 0.12, "unit": "µg/mL"},
      {"measurement": "MIC", "setting": "Klebsiella pneumoniae, KUB No. 5757, AR Bank # 361", "value": 64, "unit": "µg/mL"},
      {"measurement": "MIC", "setting": "Klebsiella pneumoniae, KUB No. 5759, AR Bank # 363", "value": 64, "unit": "µg/mL"},
      {"measurement": "MIC", "setting": "Klebsiella pneumoniae, KUB No. 5760, AR Bank # 364", "value": 64, "unit": "µg/mL"},
      {"measurement": "MIC", "setting": "Klebsiella pneumoniae, KUB No. 5772, AR Bank # 376", "value": 16, "unit": "µg/mL"},
      {"measurement": "MIC", "setting": "Klebsiella pneumoniae, Klebsiella pneumoniae KUB No. 5784, AR Bank #438", "value": 64, "unit": "µg/mL"},
      {"measurement": "MIC", "setting": "Klebsiella pneumoniae, Klebsiella pneumoniae KUB No. 5797, AR Bank #453", "value": 64, "unit": "µg/mL"},
      {"measurement": "MIC", "setting": "Klebsiella pneumoniae, Klebsiella pneumoniae KUB No. 5809, AR Bank #504", "value": 0.5, "unit": "µg/mL"},
      {"measurement": "MIC", "setting": "Klebsiella pneumoniae, Klebsiella pneumoniae KUB No. 5810, AR Bank #505", "value": 1, "unit": "µg/mL"},
      {"measurement": "MIC", "setting": "Klebsiella pneumoniae, Klebsiella pneumoniae KUB No. 5811, AR Bank #506", "value": 4, "unit": "µg/mL"},
      {"measurement": "MIC", "setting": "Klebsiella pneumoniae, Klebsiella pneumoniae KUB No. 5812, AR Bank #507", "value": "> 64", "unit": "µg/mL"},
      {"measurement": "MIC", "setting": "Klebsiella pneumoniae, Klebsiella pneumoniae KUB No. 5827, AR Bank #522", "value": 32, "unit": "µg/mL"},
      {"measurement": "MIC", "setting": "Klebsiella pneumoniae, Klebsiella pneumoniae KUB No. 5828, AR Bank #523", "value": 4, "unit": "µg/mL"},
      {"measurement": "MIC", "setting": "Klebsiella pneumoniae, Klebsiella pneumoniae KUB No. 5829, AR Bank #524", "value": 32, "unit": "µg/mL"},
      {"measurement": "MIC", "setting": "Klebsiella pneumoniae, Klebsiella pneumoniae KUB No. 5830, AR Bank #525", "value": 64, "unit": "µg/mL"},
      {"measurement": "MIC", "setting": "Kluyvera ascorbata, KUB No. 5641, AR Bank # 144", "value": 2, "unit": "µg/mL"},
      {"measurement": "MIC", "setting": "Morganella morganii, KUB No. 5554, AR Bank# 57", "value": 8, "unit": "µg/mL"},
      {"measurement": "MIC", "setting": "Morganella morganii, KUB No. 5630, AR Bank # 133", "value": 64, "unit": "µg/mL"},
      {"measurement": "MIC", "setting": "Morganella morganii, Morganella morganii KUB No. 5824, AR Bank #519", "value": 0.12, "unit": "µg/mL"},
      {"measurement": "MIC", "setting": "Proteus mirabilis, KUB No. 5556, AR Bank# 59", "value": 8, "unit": "µg/mL"},
      {"measurement": "MIC", "setting": "Proteus mirabilis, KUB No. 5652, AR Bank # 155", "value": "> 64", "unit": "µg/mL"},
      {"measurement": "MIC", "setting": "Proteus mirabilis, KUB No. 5653, AR Bank # 156", "value": 2, "unit": "µg/mL"},
      {"measurement": "MIC", "setting": "Proteus mirabilis, KUB No. 5656, AR Bank # 159", "value": 2, "unit": "µg/mL"},
      {"measurement": "MIC", "setting": "Proteus mirabilis, KUB No. 5773, AR Bank # 377", "value": 16, "unit": "µg/mL"},
      {"measurement": "MIC", "setting": "Proteus mirabilis, KUB No. 5775, AR Bank # 379", "value": 4, "unit": "µg/mL"},
      {"measurement": "MIC", "setting": "Raoultella ornithinolvtica, KUB No. 5631, AR Bank # 134", "value": 0.5, "unit": "µg/mL"},
      {"measurement": "MIC", "setting": "Salmonella enterica, Salmonella Senftenberg, KUB No. 5624, AR Bank # 127", "value": 32, "unit": "µg/mL"},
      {"measurement": "MIC", "setting": "Serratia marcescens, KUB No. 5596, AR Bank # 99", "value": 0.25, "unit": "µg/mL"},
      {"measurement": "MIC", "setting": "Serratia marcescens, KUB No. 5618, AR Bank # 121", "value": 0.12, "unit": "µg/mL"},
      {"measurement": "MIC", "setting": "Serratia marcescens, KUB No. 5619, AR Bank # 122", "value": 0.5, "unit": "µg/mL"},
      {"measurement": "MIC", "setting": "Serratia marcescens, KUB No. 5620, AR Bank # 123", "value": 0.25, "unit": "µg/mL"},
      {"measurement": "MIC", "setting": "Serratia marcescens, KUB No. 5621, AR Bank # 124", "value": 0.5, "unit": "µg/mL"},
      {"measurement": "MIC", "setting": "Serratia marcescens, KUB No. 5627, AR Bank # 130", "value": 0.12, "unit": "µg/mL"},
      {"measurement": "MIC", "setting": "Serratia marcescens, KUB No. 5628, AR Bank # 131", "value": 0.5, "unit": "µg/mL"},
      {"measurement": "MIC", "setting": "Serratia marcescens, Serratia marcescens KUB No. 5825, AR Bank #520", "value": 0.5, "unit": "µg/mL"},
      {"measurement": "MIC", "setting": "Serratia marcescens, Serratia marcescens KUB No. 5826, AR Bank #521", "value": 16, "unit": "µg/mL"},
      {"measurement": "MIC50", "setting": "carbapenemase-producing Enterobacterales, Metallo-β-lactamase (N = 47), read-out: MIC50", "value": 32, "unit": "µg/mL"},
      {"measurement": "MIC90", "setting": "carbapenemase-producing Enterobacterales, Metallo-β-lactamase (N = 47), read-out: MIC90", "value": "> 64", "unit": "µg/mL"}
    ]}
  ]
}
